Results published in US20130316042A1, “ENHANCED RELEASE OF LIPOPHILIC INGREDIENTS FROM CHEWING GUM WITH HYDROCOLLOIDS” (CADBURY ADAMS MEXICO, S. DE R.L. DE C.V., priority 2010, published 2013).

Experiment: logP (octanol/water) at 25° C.
Format: physicochemical
Experimental: In one aspect, the lipophilic ingredient is one having a partition coefficient between octanol and water (log P (octanol/water) at 25° C.) of greater than or equal to 1.5, specifically greater than or equal to 2.0, more specifically greater than or equal to 2.5, yet more specifically greater than or equal to 3.0, still yet more specifically greater than or equal to 3.5, and more specifically greater than or equal to 4.0. The partition coefficient of material can be determined experimentally or calculated using commercially available software.

SMILES | logP | logP (octanol/water) at 25° C.
CNC(=O)C(C)(C(C)C)C(C)C [N,2,3-trimethyl-2-propan-2-ylbutanamide] | 2.48 | –
CCNC(=O)C(CC)(C(C)C)C(C)C [N-ethyl-2,2-diisopropylbutanamide] | 3.6 | –
CC1CCC(C(C)C)C(O)C1 (stereo not shown) [menthol, reference compound] | 3.4 | –
CC(C)[C@@H]1CC[C@@H](C)C[C@H]1OC(=O)CCCC(=O)O [monomenthyl glutarate] | – | 4.12
C/C=C/C=C\CC/C=C/C(=O)NCC(C)C [spilanthol, N-isobutyl-2E,6Z,8E-decatrienamide] | 3.4 | –

The remaining lines, values ahead:

logP | logP (octanol/water) at 25° C. | SMILES
3.81 | – | CCNC(=O)C1CC(C)CCC1C(C)C (stereo not shown) [N-ethyl-p-menthane-3-carboxamide (WS-3), N-ethyl-p-menthane-3-carboxamide]
3.38 | – | CCOC(=O)CNC(=O)C1CC(C)CCC1C(C)C (stereo not shown) [ethyl 2-[(5-methyl-2-propan-2-ylcyclohexanecarbonyl)amino]acetate]
